For ten compounds, GI50 and TGI results are on record in PubChem BioAssay (NCI).

Several values for one entry are separate records, joined by “and”; a condition that tells them apart may be missing. Equal values may be shown once.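 Cells were grown in 96-well plates and exposed to each compound for 48 hours at five concentrations; endpoints were interpolated linearly between bracketing concentrations, or set to the highest concentration if not reached. At the GI50, growth is halved. Definition used: TGI = concentration required for complete inhibition of growth.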 A value given as a limit tells only on which side of the number the result lay.

Test systems include HOP-62 NSCLC; SF-539 CNS; OVCAR-3 ovarian; SW-620 colon; HCT-15 colon; NCI-H226 lung; A549 NSCLC; UACC-62 melanoma; KM12 colon; HS 578T breast.
Common to all, as to test: DTP human tumour cell line panel, 48 h

Broadly, the GI50 is the concentration that inhibits growth by half. The term TGI denotes the concentration at which net growth stops. A higher TGI goes with lower sensitivity of the cells. As to `COc1ccc(-c2nsc3c2NC(=O)CC3c2cccc(OC)c2)cc1` (centres undefined), the GI50 is 2.41 µM with HOP-62 NSCLC; 1.87 µM in the experiment on SF-539 CNS; 0.705 µM in the experiment on OVCAR-3 ovarian; 0.412 µM in the experiment with SW-620 colon; 0.527 µM in the experiment with HCT-15 colon; 17.5 µM in the experiment with NCI-H226 lung. Further, the GI50 with A549 NSCLC is 0.714 µM; in the experiment on UACC-62 melanoma, 0.865 µM; with KM12 colon, 0.505 µM; with HS 578T breast, 1.34 µM. Further, the TGI in the experiment on HOP-62 NSCLC was 33.9 µM; in the experiment on SF-539 CNS, 6.7 µM; in the experiment with OVCAR-3 ovarian, 4.41 µM; in the experiment with SW-620 colon, above 100 µM; in the experiment with HCT-15 colon it was above 100 µM; in the experiment on NCI-H226 lung it was above 100 µM. Also, the TGI was above 100 µM with A549 NSCLC, above 100 µM in the experiment with UACC-62 melanoma, above 100 µM with KM12 colon and 16.9 µM with HS 578T breast.

Consider `CSc1nc(NC2OC(COC(C)=O)C(OC(C)=O)C(OC(C)=O)C2OC(C)=O)c(N=CC=Nc2c(NC3OC(COC(C)=O)C(OC(C)=O)C(OC(C)=O)C3OC(C)=O)nc(SC)n(C)c2=O)c(=O)n1C` (centres undefined), for which the GI50 was 21.2 µM with HOP-62 NSCLC; above 50 µM in the experiment on OVCAR-3 ovarian; above 50 µM in the experiment on SW-620 colon; above 50 µM with HCT-15 colon; above 50 µM in the experiment on A549 NSCLC; above 50 µM with UACC-62 melanoma. The results for the GI50 in the experiment on KM12 colon and with HS 578T breast were above 50 µM and 13.2 µM, respectively. The TGI is 50 µM and 29.8 µM with HOP-62 NSCLC; 50 µM and 69.3 µM in the experiment on SF-539 CNS; above 50 µM with OVCAR-3 ovarian; above 100 µM in the experiment with SW-620 colon; above 100 µM with HCT-15 colon; > 50 µM and 97.8 µM in the experiment on NCI-H226 lung. The total growth inhibition concentration (TGI) is above 100 µM with A549 NSCLC; above 100 µM with UACC-62 melanoma; above 100 µM with KM12 colon; 50 µM and 75.7 µM with HS 578T breast.

Take `Nc1ccn(C2OC(CO)C(O)C2O)c(=O)n1` (centres undefined): the GI50 with HOP-62 NSCLC was 0.237 µM; with SF-539 CNS, 16.8 µM; in the experiment on OVCAR-3 ovarian, 3.74 µM; in the experiment with SW-620 colon, 0.847 µM; with NCI-H226 lung, 0.637 µM; with A549 NSCLC it was 0.422 µM. The GI50 in the experiment on UACC-62 melanoma is 1.93 µM. In addition, the total growth inhibition concentration (TGI) with OVCAR-3 ovarian is > 100 µM and 500 µM and > 500 µM; in the experiment on SW-620 colon, > 100 µM and 462 µM and > 500 µM; in the experiment on HCT-15 colon it was above 500 µM; with NCI-H226 lung, above 500 µM; in the experiment with KM12 colon it was above 500 µM; with HS 578T breast, above 500 µM.

Turning to `Cc1cc2cc3c(=O)[nH]c(=O)[nH]c3nc2cc1C`, the TGI in the experiment on HOP-62 NSCLC, in the experiment on SF-539 CNS, in the experiment on OVCAR-3 ovarian, in the experiment with SW-620 colon, with HCT-15 colon and in the experiment on NCI-H226 lung was above 100 µM throughout. Moreover, the TGI in the experiment on A549 NSCLC, in the experiment with UACC-62 melanoma, in the experiment with KM12 colon and with HS 578T breast was above 100 µM in each case.

As to `CN(C)CCSc1cc(-c2ccccc2)c2ccccc2n1`, the TGI in the experiment on HOP-62 NSCLC stood at 22.9 µM; in the experiment on SF-539 CNS it was 23 µM; in the experiment with SW-620 colon it was 23.2 µM; with HCT-15 colon, 14.6 µM; with NCI-H226 lung, 33.4 µM; in the experiment with A549 NSCLC it was 28.5 µM. The results for the TGI with UACC-62 melanoma, in the experiment with KM12 colon and in the experiment on HS 578T breast were 9.45 µM, 29 µM and 21.9 µM, respectively.

`Cn1cc(-c2csc(-c3c[nH]c4ccc(Br)cc34)n2)c2cnccc21`: the GI50 in the experiment on HOP-62 NSCLC was 3.17 µM; with SF-539 CNS it was 2.14 µM; with OVCAR-3 ovarian, 2.08 µM; with SW-620 colon, 1.81 µM; in the experiment on HCT-15 colon, 1.38 µM; in the experiment with NCI-H226 lung it was 2.34 µM. Further, the GI50 in the experiment with A549 NSCLC is 2.81 µM; with KM12 colon, 2.33 µM; in the experiment with HS 578T breast, 2.47 µM. Further, the TGI in the experiment on HOP-62 NSCLC amounted to 13.9 µM; with SF-539 CNS, 4.6 µM; in the experiment with OVCAR-3 ovarian, 4.19 µM; in the experiment on SW-620 colon it was 3.46 µM; in the experiment on HCT-15 colon it was 2.85 µM; in the experiment with NCI-H226 lung it was 6 µM. In addition, the figures for the TGI in the experiment with A549 NSCLC, with KM12 colon and in the experiment on HS 578T breast were 11.5 µM, 5.48 µM and 5 µM, respectively.

On to `O=C(Nc1ccc(Cl)c(C(F)(F)F)c1)c1ccc(NC2=C(Cl)C(=O)N(Cc3ccccc3)C2=O)cc1`, for which the GI50 in the experiment on HOP-62 NSCLC was 22.4 µM; with SF-539 CNS, 8.92 µM; in the experiment on OVCAR-3 ovarian, 18.6 µM; in the experiment with NCI-H226 lung it was 23.1 µM; with A549 NSCLC it was 17 µM; with UACC-62 melanoma, 16.6 µM. Moreover, the GI50 with KM12 colon is 20.3 µM; in the experiment with HS 578T breast, 2.43 µM. In addition, the TGI was found to be 46.1 µM with HOP-62 NSCLC; 23.9 µM in the experiment on SF-539 CNS; 37.9 µM with OVCAR-3 ovarian; 53 µM in the experiment with NCI-H226 lung; 34.8 µM with A549 NSCLC; 30.2 µM in the experiment on UACC-62 melanoma. Besides, the TGI turned out to be 47.3 µM in the experiment with KM12 colon and 5.67 µM in the experiment with HS 578T breast.

For the compound `COc1ccc(/C(=C\C=C(C#N)C#N)Sc2nc3ccccc3s2)cc1`, the GI50 in the experiment with HOP-62 NSCLC was 8.16 µM; with SF-539 CNS, 1.19 µM; with OVCAR-3 ovarian, 8.26 µM; in the experiment on SW-620 colon it was 1.77 µM; with NCI-H226 lung, 11.2 µM; in the experiment on A549 NSCLC it was 15.5 µM. The GI50 in the experiment on UACC-62 melanoma was 8.63 µM; in the experiment with KM12 colon, 10.6 µM; in the experiment on HS 578T breast, 31.2 µM. For the same compound, the TGI with HOP-62 NSCLC is 16.7 µM; with SF-539 CNS, 2.59 µM; with OVCAR-3 ovarian, 17.7 µM; in the experiment with SW-620 colon it was above 50 µM; in the experiment on NCI-H226 lung it was 40.9 µM; with A549 NSCLC, above 50 µM. For the same compound, the TGI with UACC-62 melanoma is 18.7 µM; with KM12 colon, 31.3 µM; with HS 578T breast, above 50 µM.

In the case of `COc1cccc2c1C(=O)c1c(O)c3c(c(O)c1C2=O)C[C@@](O)(/C(C)=N/NC(=O)c1ccc(Cl)cc1)C[C@@H]3OC1CC(N)C(O)C(C)O1` (some centres undefined), the GI50 is 0.215 µM with HOP-62 NSCLC; 0.21 µM with SF-539 CNS; 0.395 µM in the experiment with OVCAR-3 ovarian; 1.02 µM with HCT-15 colon; 0.187 µM with NCI-H226 lung; 0.124 µM in the experiment with A549 NSCLC. The GI50 in the experiment on KM12 colon was 0.326 µM; in the experiment with HS 578T breast, 0.369 µM. Further, the TGI in the experiment on HOP-62 NSCLC came to 1.94 µM; with SF-539 CNS, 0.747 µM; in the experiment with OVCAR-3 ovarian, 2.4 µM; in the experiment on HCT-15 colon, 12.6 µM; in the experiment with NCI-H226 lung, 0.897 µM; in the experiment on A549 NSCLC it was 1.85 µM. Further, the TGI was determined as 2.44 µM in the experiment with KM12 colon and 2.52 µM in the experiment on HS 578T breast.

`CC1(Br)Cc2ccccc2C1=O` (centres undefined): the TGI with HOP-62 NSCLC amounted to 29.1 µM; with SF-539 CNS, 16.8 µM; in the experiment with OVCAR-3 ovarian, 14.5 µM; in the experiment on SW-620 colon, 2.69 µM; in the experiment with NCI-H226 lung, 5.93 µM; in the experiment on A549 NSCLC it was 32.4 µM. In addition, the TGI in the experiment with UACC-62 melanoma came to 3.63 µM; in the experiment with KM12 colon it was 25.8 µM; in the experiment with HS 578T breast, 38.6 µM. Further, the GI50 is 4.11 µM with OVCAR-3 ovarian and 0.444 µM in the experiment with SW-620 colon.
